Measured values as given in patent EP2716638A1, “Labeled ligands of the oxytocyn receptor” (Université de Strasbourg, priority 2012, dated 2014).

What was measured:
OTR = molecular target: T1, OTR (Homo sapiens, UniProt P30559); assay: TR-FRET (HTRF) saturation binding assay on SNAP-tag labeled receptor in cells; details: saturation with fluorescent ligand; mean ± SEM of three independent experiments in triplicate; read-out: Binding, HTRF (Kd, nM) OT
T1 construct: expressed in transfected cells; host or cells: HEK 293T (printed for the general protocol, whose plasmid sentence names only the V2 receptor)
T1 sequence (P30559 1-389): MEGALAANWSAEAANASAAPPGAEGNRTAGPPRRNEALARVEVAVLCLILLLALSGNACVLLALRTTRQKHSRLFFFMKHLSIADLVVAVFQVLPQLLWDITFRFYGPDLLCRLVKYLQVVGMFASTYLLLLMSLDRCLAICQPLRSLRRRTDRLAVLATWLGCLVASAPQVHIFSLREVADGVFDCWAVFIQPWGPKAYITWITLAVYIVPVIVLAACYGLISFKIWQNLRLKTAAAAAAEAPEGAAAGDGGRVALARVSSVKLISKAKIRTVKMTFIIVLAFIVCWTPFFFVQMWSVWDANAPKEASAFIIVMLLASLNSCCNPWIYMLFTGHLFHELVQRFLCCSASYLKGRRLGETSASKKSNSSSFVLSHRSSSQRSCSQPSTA
Protocol: (§1) These assays were performed as described in Zwier et al (Journal of Biomolecular Screening 2010, 15, 1248-1259). Briefly, HEK 293T cells were cultivated in DMEM medium supplemented with 10% foetal calf serum (FCS) and 1% penicillin/streptomycin antibiotics. Confluent cells were dissociated and electroporated with plasmid DNA coding for the V2 receptor fused to the SNAP-tag suicide enzyme. Transfected cells were then plated in black 96-well plates previously coated with poly-ornithine (diluted at 0.1 mg.mL^-1 in sterile water, incubated 30 min at 37°C, washed with sterile PBS). Plates were incubated in supplemented DMEM medium for 48h à 37°C, […] and 5% CO2. Expressed receptors fused to SNAPtag were then labeled with fluorescent substrates, either with a donor (SNAP-Lumi4-Tb) or an acceptor (SNAP-RED) at respectively 100 or 300 nM in 100 µL of Tag-lite® labeling medium, for 1 h at 37 °C. Cells were then washed 3 times in Tag-lite medium and then incubated with the fluorescent ligands. For saturation assays, increasing concentrations of fluorescent ligands were diluted in 100 µL of Tag-lite medium. For competition assays, a fixed concentration of fluorescent ligand (typically 20 nM) was mixed with an increasing concentration of cold competitor ligand (in this case AVP) in Tag-lite medium. After overnight incubation at 4 °C (to prevent any internalization phenomenon), plates were read in an HTRF®-compatible multi-well plate reader with a classic HTRF® protocol (excitation at 340 nm, donor emission measured at 620 nm and acceptor emission at 665 nm, 50 µs delay, 500 µs integration).
(§2) Fluorescent compounds 21 to 24 were involved in the development of a TR-FRET based assay for both V1aR and OTR. Such technique usually offers a higher signal-to-noise ratio than classic FRET because of the long-lasting fluorescence of the lanthanide cryptate. TR-FRET based saturation experiments with fluorescent compounds 21 to 24 were performed on V1a, OT and V2 receptors labeled with the SNAP-tag® approach: cells expressing a receptor of interest fused to SNAP-tag are incubated in the presence of a fluorescent substrate to label the receptor. Cells were then incubated in the presence of increasing concentrations of a fluorescent ligand. Fluorophores of the SNAP-tag substrates and of the ligands are chosen to be compatible with time-resolved FRET. SNAP-tagged receptors were labeled either with a Lumi4-Tb donor (SNAP-Lumi4-Tb) or d2 acceptor (SNAP-red) depending on the nature of the ligands, either acceptor (21, 22) or donor (23, 24). Saturation curves were obtained when plotting specific FRET signal as a function of fluorescent compounds concentration; non-specific binding was determined in the presence of an excess of the unlabeled corresponding ligands (10 µM) (Figure 1).

V1aR = molecular target: T2, V1aR (Homo sapiens, UniProt P37288); assay: as above; details: saturation with fluorescent ligand; mean ± SEM of three independent experiments in triplicate; read-out: Binding, HTRF (Kd, nM) V1a
T2 construct: expressed in transfected cells; host or cells: HEK 293T (printed for the general protocol, whose plasmid sentence names only the V2 receptor)
Protocol: as §1, §2

V2 receptor = molecular target: T3, V2 receptor (Homo sapiens, UniProt P30518); assay: as above; details: saturation with fluorescent ligand; mean ± SEM of three independent experiments in triplicate
T3 construct: expressed in transfected cells; host or cells: HEK 293T
Protocol: as §1, §2

cAMP accumulation [1] = assay: cAMP accumulation functional assay (agonist and antagonist mode); assay type: cell-based
cAMP accumulation [2] = assay: as above; assay type: cell-based; remark: listed apart in the source
[3] = cell incubation with fluorescent compound at a concentration of 100-fold Ki

T3 sequence (P30518 whole entry): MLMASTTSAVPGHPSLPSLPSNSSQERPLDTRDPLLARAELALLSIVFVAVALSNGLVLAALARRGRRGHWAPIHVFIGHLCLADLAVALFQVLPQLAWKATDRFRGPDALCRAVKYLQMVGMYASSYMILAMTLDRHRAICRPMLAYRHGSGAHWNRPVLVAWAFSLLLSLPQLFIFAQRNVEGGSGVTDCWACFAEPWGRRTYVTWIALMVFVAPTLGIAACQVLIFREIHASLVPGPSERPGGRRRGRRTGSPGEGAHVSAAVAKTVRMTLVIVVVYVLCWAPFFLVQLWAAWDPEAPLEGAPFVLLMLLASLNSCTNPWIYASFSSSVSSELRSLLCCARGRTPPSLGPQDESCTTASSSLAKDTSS
T2 sequence (P37288 whole entry): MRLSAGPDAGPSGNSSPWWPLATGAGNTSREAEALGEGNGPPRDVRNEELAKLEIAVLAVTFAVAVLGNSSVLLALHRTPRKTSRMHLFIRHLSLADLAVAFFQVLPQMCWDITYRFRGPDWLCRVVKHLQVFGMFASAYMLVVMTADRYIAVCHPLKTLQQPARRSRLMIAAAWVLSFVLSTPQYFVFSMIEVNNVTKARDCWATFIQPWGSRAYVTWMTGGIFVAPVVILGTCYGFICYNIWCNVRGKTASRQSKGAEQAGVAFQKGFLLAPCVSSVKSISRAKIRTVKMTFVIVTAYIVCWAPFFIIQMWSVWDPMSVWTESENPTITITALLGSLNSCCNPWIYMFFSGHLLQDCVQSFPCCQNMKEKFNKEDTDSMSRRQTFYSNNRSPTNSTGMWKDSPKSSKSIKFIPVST

Row | Molecule | Kd (OTR) | Kd (V1aR) | Kd (V2 receptor) | cyclic adenosine monophosphate (cAMP) accumulation (intrinsic agonist activity) (cAMP accumulation [1]; [3]) | inhibition of AVP-induced cAMP accumulation (cAMP accumulation [1]; dose-dependent, antagonist mode) | EC50 (cAMP accumulation [2]; cAMP accumulation, agonist potency, read-out: Kact) | cyclic adenosine monophosphate (cAMP) accumulation (intrinsic agonist activity) (cAMP accumulation [2]; [3])
1 | CCN1C(=CC=CC=CC2=[N+](CC)c3ccc(S(=O)(=O)[O-])cc3C2(C)C)C(C)(CCCC(=O)NCCOCCN2CCN(CCCCCCOc3cccc(C)c3-n3c(C)nnc3-c3ccc(-c4ccccc4)cc3)CC2)c2cc(S(=O)(=O)O)ccc21 (stereo not shown) [Compound 21] | 7 ± 2 nM | 6 ± 2 nM | > 1000 nM | No significant increase in accumulation of second messengers | fully inhibited | – | –
2 | CCN1C(=CC=CC=CC2=[N+](CC)c3ccc(S(=O)(=O)[O-])cc3C2(C)C)C(C)(CCCC(=O)NCCOCCOCCOCCN2CCN(CCCCCCOc3cccc(C)c3-n3c(C)nnc3-c3ccc(-c4ccccc4)cc3)CC2)c2cc(S(=O)(=O)O)ccc21 (stereo not shown) [Compound 22] | 11 ± 2 nM | 10 ± 2 nM | > 1000 nM | – | – | – | –
3 | arginine vasopressin [AVP] | – | – | – | – | – | 0.29 nM | full agonist properties
